Assay [1] relates to MhTyrA (MhTyrAp; KUK94425.1), Methanosaeta harundinacea TyrA, wild-type. Put plainly: Kinetic analysis of MhTyrAp wild-type. As to conditions: NADP+ cofactor. Format: biochemical. The procedure:
(§1) FIGS. 14A-14B show a kinetic analysis of MhTyrAp wild-type and Q227E mutant enzymes. Kinetic analysis was performed with MhTyrAp wild-type (filled circle) and Q227E mutant (open square) enzymes using various concentrations of prephenate (FIG. 14A) and arogenate (FIG. 14B). Initial velocity values at each substrate concentration were fit to the Michaelis-Menten equation using Origin software. Kinetic analyses were conducted for MhTyrA wild-type using 3.41 μg of purified recombinant enzyme, and 4.56 μg and 2.28 μg of purified recombinant Q227E using prephenate and arogenate, respectively.
(§2) ADH and PDH assays were performed using purified recombinant enzymes for SsTyrA and MhTyrA Wt and Q227E mutant, while the E. coli cell lysate was used for OiTyrA as expression and purification of this enzyme was unsuccessful. Reactions contained 0.8 mM substrate (arogenate or prephenate) and 0.8 mM cofactor (NADP+ or NAD+) together with reaction buffer (25 mM HEPES pH 7.6, 50 mM KCl, 10% (v/v) ethylene glycol). For OiTyrA assays containing cell lysates, reactions were incubated for 45 minutes and analyzed using HPLC as previously reported (Schenck et al., 2015). For pure enzymes, reactions were monitored every 10-15 seconds for reduced cofactor at A340 nm using a microplate reader (Tecan Genios). Kinetic parameters of purified recombinant enzymes were determined from assays containing varying concentrations of arogenate (39.1 μM-5 mM) or prephenate (39.1 μM-5 mM) substrate and monitored 10-15 seconds for reduced cofactor at A340 nm using a microplate reader (Tecan Genios). Kinetic parameters were determined by fitting initial velocity data to the Michaelis-Menten equation using Origin software (OriginLab) from technical replicate assays (n=3). Arogenate substrate was prepared by enzymatic conversion of prephenate (Sigma-Aldrich). All enzyme assays were conducted at a reaction time and protein concentration that were in the linear range and proportional to reaction velocity.

Assay [2] concerns the target T1, Glycine max GmPDH1 variant N222D, SEQ ID NO: 2 (Glycine max, UniProt I1MYY4, N222D).
T1 sequence (I1MYY4 1-271 N222D): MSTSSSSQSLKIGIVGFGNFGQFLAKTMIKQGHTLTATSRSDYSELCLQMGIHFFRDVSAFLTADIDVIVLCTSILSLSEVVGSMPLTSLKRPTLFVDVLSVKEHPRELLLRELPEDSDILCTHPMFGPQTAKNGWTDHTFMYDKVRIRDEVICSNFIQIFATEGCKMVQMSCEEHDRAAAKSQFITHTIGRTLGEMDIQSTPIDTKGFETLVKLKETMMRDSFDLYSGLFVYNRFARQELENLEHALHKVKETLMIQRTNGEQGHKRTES
The experiment in a line: ADH and PDH assay: steady-state kinetics and Tyr inhibition, GmPDH1 N222D. Conditions: versus wild-type GmPDH1. Format: biochemical, Glycine max (soybean). The procedure: (§3) Kinetic parameters of purified recombinant proteins were determined from assays conducted at varying arogenate (19.5 μM-5 mM) and prephenate concentration (23.4 μM-6 mM). Standard assay conditions were 25 mM HEPES pH 7.6, 50 mM KCl and 10% (v/v) ethylene glycol, and 0.5 mM NADP^+ with varied substrate, concentrations. Reactions were initiated by addition of enzyme and incubated at 37° C. monitored every 10-15 seconds at […] using a microplate reader (Tecan Genios). Kinetic parameters were determined by fitting initial velocity data to the Michaelis-Menten equation using the Origin software (OriginLab).
(§4) Arogenate was prepared by enzymatic conversion of prephenate (Sigma-Aldrich) as previously reported^56. For Tyr inhibition assays, Tyr was dissolved in a slightly basic solution (0.025 N NaOH) due to solubility issues, thus the concentration of lysis buffer was increased to 500 mM HEPES final concentration to buffer against the changes by addition of Tyr in the reaction. Reactions containing varying amounts of Tyr (10 μM-8 mM) with 0.5 mM NADP^+ and either 1 mM arogenate or 0.8 mM prephenate were monitored as above.

Assay [3] has as its system Peanut PDH/ADH (AipaensisVYE8T), Arachis ipaensis, wild type. The experiment in a line: ADH and PDH assay: steady-state kinetics and Tyr inhibition, peanut PDH/ADH. It counts as biochemical. How it is done: as §3, §4
In assay [4] the target is T2, Medicago truncatula MtPDH variant C220D, SEQ ID NO: 1 (Medicago truncatula, UniProt A0A0A0R205, C220D).
T2 sequence (A0A0A0R205 1-268 C220D): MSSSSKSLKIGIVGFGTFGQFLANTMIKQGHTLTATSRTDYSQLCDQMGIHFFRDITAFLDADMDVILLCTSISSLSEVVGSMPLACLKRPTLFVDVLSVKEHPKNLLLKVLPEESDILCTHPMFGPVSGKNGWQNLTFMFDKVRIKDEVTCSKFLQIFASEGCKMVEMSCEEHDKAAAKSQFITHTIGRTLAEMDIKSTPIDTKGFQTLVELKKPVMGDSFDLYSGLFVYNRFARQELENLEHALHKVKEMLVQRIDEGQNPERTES
Put plainly: ADH and PDH assay: steady-state kinetics and Tyr inhibition, MtPDH C220D. As to conditions: compared to wild-type MtPDH. It counts as biochemical. How it is done: as §3, §4

Assay [5] relates to Methanosaeta harundinacea MhTyrAp variant Q227E. Put plainly: Kinetic analysis of MhTyrAp Q227E mutant. It counts as biochemical. How it is done: as §1, §2
The target of assay [6] is T3, GmPDH1 (Gm18g02650), soybean (Glycine max) prephenate dehydrogenase, wild type (Glycine max, UniProt I1MYY4).
T3 construct: homodimer
T3 sequence (I1MYY4 1-271): T1 sequence (I1MYY4 1-271 N222D) with D222N
The experiment in a line: ADH and PDH assay: steady-state kinetics and Tyr inhibition, GmPDH1 wild type. It counts as biochemical. The procedure:
as §3
(§5) Arogenate was prepared by enzymatic conversion of prephenate (Sigma-Aldrich) as previously reported^56. For Tyr inhibition assays, Tyr was dissolved in a slightly basic solution (0.025 N NaOH) due to solubility issues, thus the concentration of lysis buffer was increased to 500 mM HEPES final concentration to buffer against the changes by addition of Tyr in the reaction. […]

Assay [7] deals with T4, Medicago truncatula MtncADH variant D220C, SEQ ID NO: 10 (Medicago truncatula, UniProt A0A217FAR3, D220C).
T4 construct: D220C by site-directed mutagenesis
T4 sequence (A0A217FAR3 1-266 D220C): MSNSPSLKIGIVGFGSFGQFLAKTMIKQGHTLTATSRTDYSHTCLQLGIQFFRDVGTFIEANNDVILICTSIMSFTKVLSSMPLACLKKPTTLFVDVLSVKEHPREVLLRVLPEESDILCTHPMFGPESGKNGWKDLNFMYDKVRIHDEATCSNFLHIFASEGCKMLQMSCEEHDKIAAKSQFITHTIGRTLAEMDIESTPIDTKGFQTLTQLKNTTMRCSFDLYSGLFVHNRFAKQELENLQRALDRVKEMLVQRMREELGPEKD
The experiment in a line: ADH and PDH assay: steady-state kinetics and Tyr inhibition, MtncADH D220C. Format: biochemical. Conditions: kcat/Km. The procedure: as §3, §4

In assay [8] the target is T5, MtPDH (MtPDH1; Mt3g071980), Medicago truncatula prephenate dehydrogenase, wild type (Medicago truncatula, UniProt A0A0A0R205).
T5 sequence (A0A0A0R205 1-268): T2 sequence (A0A0A0R205 1-268 C220D) with D220C
Put plainly: ADH and PDH assay: steady-state kinetics and Tyr inhibition, MtPDH wild type. It counts as biochemical. As to conditions: preference for prephenate. The procedure: as §3, §5

Assay [9] is described as follows: Tyr inhibition assay of ADH activity (arogenate substrate). Format: biochemical. Conditions: Tyr up to 8 mM. The procedure:
as §4

A short description of assay [10]: PDH assay: steady-state kinetics of purified recombinant plant enzymes with prephenate. Format: biochemical. Conditions: prephenate versus arogenate, NADP+ cofactor.
Excerpt: As used herein, a polypeptide may “have greater arogenate dehydrogenase activity than prephenate dehydrogenase activity” or “have greater prephenate dehydrogenase activity than arogenate dehydrogenase activity” when the steady-state kinetic parameters (kcat/Km (mM^−1s^−1)) for arogenate dehydrogenase activity are greater than the steady-state parameters (kcat/Km (mM^−1s^−1)) for prephenate dehydrogenase activity or when the steady-state kinetic parameters (kcat/Km (mM^−1s^−1)) for prephenate dehydrogenase activity are greater than the steady-state parameters (kcat/Km (mM^−1s^−1)) for arogenate dehydrogenase activity. Steady-state kinetic parameters may be measured using techniques similar to those described by the inventors in the Examples. Briefly, kinetic parameters of purified polypeptides can be determined from assays conducted at varying arogenate and prephenate concentrations. Standard assay conditions include 25 mM HEPES pH 7.6, 50 mM KCl and 10% (v/v) ethylene glycol, and 0.5 mM NADP^+ with varied substrate, concentrations. Reactions can be initiated by the addition of the polypeptide and incubated at 37° C. monitored every 10-15 seconds at A340nm using a microplate reader. Kinetic parameters may be determined by fitting initial velocity data to the Michaelis-Menten equation using the Origin software.
as §3

Positions count from the first letter of the chain named. Names and notes keep the numbering of the source. Values joined by “and” are separate entries in the source; they are usually repeats but may differ in a detail not shown here. Equal values may be shown once. Read-outs that look alike come from different tables or passages of the source.

As to `O=C(O)C(=O)CC1(C(=O)O)C=CC(O)C=C1` (centres unmarked) [prephenate], the Km in [1] is 378 µM; in assay [1] (pH 7.6), 378 ± 20 µM; in [3] (0.5 mM NADP^+, pH 7.6, 37° C.) it was 190 ± 10 µM; in [5] (NADP+ cofactor, pH 7.6, read-out: Km), 2700 µM and 2670 µM; in assay [5] (read-out: Km for prephenate), 2400 µM. The catalytic constant (kcat) in assay [1] (pH 7.6) is 2.4 s⁻¹ and 2.44 ± 0.38 s⁻¹; in [3] (0.5 mM NADP^+, pH 7.6, 37° C.) it was 2.8 ± 0.2 s⁻¹; in assay [5] (NADP+ cofactor, pH 7.6), 0.285 ± 0.17 s⁻¹; in assay [6] (0.5 mM NADP^+, pH 7.6, 37° C.), 30.4 s⁻¹. The kcat/Km was 6400 M⁻¹ s⁻¹ and 6440 ± 20 M⁻¹ s⁻¹ in [1] (pH 7.6); 14,740 M^−1 s^−1 in assay [3] (0.5 mM NADP^+, pH 7.6, 37° C.); 14.9 mM⁻¹ s⁻¹ in [3] (FIG. 7A, with NADP^+); 100 M⁻¹ s⁻¹ and 107 ± 10 M⁻¹ s⁻¹ in [5] (NADP+ cofactor, pH 7.6). Moreover, in assay [2], the “fold reduction in kcat/Km with prephenate” value is on record as 115 fold. Moreover, in [4], the “fold higher Km” value was 31 fold. In addition, the “fold increase in Km for prephenate” value in assay [5] (versus wild-type) is reported as ~10 fold. Besides, the “fold reduction of catalytic efficiency (kcat/Km)” value in [5] (versus wild-type) is 60 fold. The results for the “fold higher kcat/Km, prephenate versus arogenate” value in assay [6] (preference for prephenate) and in assay [8] were 139 fold and 21 fold, respectively. Moreover, in assay [7], the “fold preference for prephenate over arogenate” value was found to be 1.7 fold.

B1: MtncADH D220C: site-directed mutant of M. truncatula noncanonical ADH, Asp220 to Cys (protein)
chain: T4 sequence (A0A217FAR3 1-266 D220C)
modifications: Synthetic: MtncADH D220C
notes: site-directed mutant of M. truncatula noncanonical ADH, Asp220 to Cys
Turning to B1, in assay [9], the “feedback inhibition by Tyr (in words)” value was “significantly less sensitive to Tyr inhibition than the respective wild-type enzymes”. The “substrate specificity: PDH versus ADH activity (in words)” value in assay [10] was “reduced ADH activity and enhanced PDH activity”.

B2: GmncADH: noncanonical arogenate dehydrogenase from soybean, wild-type (protein)
chain: MSTWSLKIGVVGFGSFGQFLAKTMIKQGHTLRATSRTDYSLLCLPMGIQFFRDVAAFLEADNDVILVCTSILSLSEVLSSMPLTCLKRSTLFVDVLSVKEHPRNLLIKVLPEESDILCTHPMFGPDSGKDGWQDLTFVYDKVRIRDEAICSSFLHIFASEGCRMLQMSCEEHDKIAAKSQFITHTIGRTLAEMDIKSTPIDTKGFHSLVQLKDTTIRDSFDLYSGLFLHNRFAVQELENLEHALHKVKEMLVQRKSEELGLEKTEC
modifications: GmncADH WT
notes: noncanonical arogenate dehydrogenase from soybean, wild-type
For the molecule B2, the “feedback inhibition by Tyr (in words)” value in assay [9] is “sensitive to Tyr but with IC50 values in the mM range”. Moreover, the “substrate specificity: PDH versus ADH activity (in words)” value in [10] is on record as “only displayed activity with arogenate”.

B3: AtADH2 D241N: site-directed mutant of Arabidopsis canonical ADH, Asp241 to Asn (protein)
chain: MLLHFSPAKPLISPPNLRRNSPTFLISPPRSLRIRAIDAAQIFDYETQLKSEYRKSSALKIAVLGFGNFGQFLSKTLIRHGHDLITHSRSDYSDAANSIGARFFDNPHDLCEQHPDVVLLCTSILSTESVLRSFPFQRLRRSTLFVDVLSVKEFPKALFIKYLPKEFDILCTHPMFGPESGKHSWSGLPFVYDKVRIGDAASRQERCEKFLRIFENEGCKMVEMSCEKHDYYAAGSQFVTHTMGRVLEKYGVESSPINTKGYETLLDLVENTSSNSFELFYGLFMYNPNALEQLERLDMAFESVKKELFGRLHQQYRKQMFGGEVQSPKKTEQKLLNDGGVVPMNDISSSSSSSSSSS
modifications: Synthetic: AtADH2 D241N
notes: site-directed mutant of Arabidopsis canonical ADH, Asp241 to Asn
In the case of B3, in assay [9], the “feedback inhibition by Tyr (in words)” value was “significantly less sensitive to Tyr inhibition than the respective wild-type enzymes”. Moreover, the “substrate specificity: PDH versus ADH activity (in words)” value in assay [10] was “gained PDH activity at the expense of ADH activity”.

Values taken from US12134788B2, “Engineered prephenate dehydrogenases and arogenate dehydrogenases and methods of using the same” (Wisconsin Alumni Research Foundation, priority 2017, dated 2024).
